Results as given in patent US11634447B2 (priority 2012, dated 2023).

Molecular target: bacterial strain LF82 binding to the glycoprotein BSA-(Mannose)3
Assay: Bacterial Binding Assay (BBA)
Type: cell-based, Escherichia coli
Conditions: LF82/Luciferase strain binding to BSA-(Man)3 coated plates, luminescence; read-out: Bacterial Binding Assay IC50
How it was run: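 Inhibition of LF82/luciferase E. coli adhesion is read as luminescence after washing off unbound cells. Compound and bacteria (10^7 per well) are co-incubated 40-75 min at room temperature on wells coated with 0.5-2 μg/mL BSA-(Man)3, with BSA-only wells as background; IC50 values derived.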

Compound | IC50 [nM]
OC[C@H]1O[C@H](C#Cc2ccc3c(c2)C2(CC(O)C(O)CO2)c2cc(C#C[C@H]4O[C@H](CO)[C@@H](O)[C@H](O)[C@@H]4O)ccc2-3)[C@@H](O)[C@@H](O)[C@@H]1O (stereo partly shown) [Compound 197] | 0.83

Same assay, conditions: read-out: Bacterial Binding Assay IC50, LF82/Luciferase strain binding to BSA-(Man)3 coated plates, luminescence

Compound | IC50 [nM]
OC[C@H]1O[C@H](C#Cc2ccc3c4ccc(C#C[C@H]5O[C@H](CO)[C@@H](O)[C@H](O)[C@@H]5O)cc4n(CCN4CCOCC4)c3c2)[C@@H](O)[C@@H](O)[C@@H]1O [Compound 189, (2R,3S,4R,5S,6R)-2-(hydroxymethyl)-6-[2-[9-(2-morpholinoethyl)-7-[2-[(2R,3S,4R,5S,6R)-3,4,5-trihydroxy-6-(hydroxymethyl)tetrahydropyran-2-yl]ethynyl]carbazol-2-yl]ethynyl]tetrahydropyran-3,4,5-triol] | 7.8
O=C1CCCN1CCn1c2cc(C#C[C@H]3O[C@H](CO)[C@@H](O)[C@H](O)[C@@H]3O)ccc2c2ccc(C#C[C@H]3O[C@H](CO)[C@@H](O)[C@H](O)[C@@H]3O)cc21 [Compound 190, 1-[2-[2,7-bis[2-[(2R,3S,4R,5S,6R)-3,4,5-trihydroxy-6-(hydroxymethyl)tetrahydropyran-2-yl]ethynyl]carbazol-9-yl]ethyl]pyrrolidin-2-one] | 1.1
OC[C@H]1O[C@H](C#Cc2ccc3c(c2)C2(SCCCS2)c2cc(C#C[C@H]4O[C@H](CO)[C@@H](O)[C@H](O)[C@@H]4O)ccc2-3)[C@@H](O)[C@@H](O)[C@@H]1O [Compound 191] | 0.36
OC[C@H]1O[C@H](C#Cc2ccc3c(c2)C2(CCNCC2)c2cc(C#C[C@H]4O[C@H](CO)[C@@H](O)[C@H](O)[C@@H]4O)ccc2-3)[C@@H](O)[C@@H](O)[C@@H]1O [Compound 192, (2R,3S,4R,5S,6R)-2-(Hydroxymethyl)-6-[2-[7-[2-[(2R,3S,4R,5S,6R)-3,4,5-trihydroxy-6-(hydroxymethyl)tetrahydropyran-2-yl]ethynyl]spiro[fluorene-9,4piperidine]-2-yl]ethynyl]tetrahydropyran-3,4,5-triol] | 3.2
OCCC1(CCO)c2cc(C#C[C@H]3O[C@H](CO)[C@@H](O)[C@H](O)[C@@H]3O)ccc2-c2ccc(C#C[C@H]3O[C@H](CO)[C@@H](O)[C@H](O)[C@@H]3O)cc21 [Compound 193, (2R,3S,4R,5S,6R)-2-[2-[9,9-Bis(2-hydroxyethyl)-7-[2-[(2R,3S,4R,5S,6R)-3,4,5-trihydroxy-6-(hydroxymethyl)tetrahydropyran-2-yl]ethynyl]fluoren-2-yl]ethynyl]-6-(hydroxymethyl)tetrahydropyran-3,4,5-triol] | 0.27
OC[C@H]1O[C@H](C#Cc2ccc3c(c2)C2(C[C@@H](O)[C@@H](O)C2)c2cc(C#C[C@H]4O[C@H](CO)[C@@H](O)[C@H](O)[C@@H]4O)ccc2-3)[C@@H](O)[C@@H](O)[C@@H]1O (stereo partly drawn) [Compound 194, (2R,3 S,4R,5S,6R)-2-[2-[(3R,4S)-3,4-Dihydroxy-7[2-[(2R,3 S,4R,5S,6R)-3,4,5-trihydroxy-6-(hydroxymethyl)tetrahydropyran-2-yl]ethynyl]spiro[cyclopentane-1,9fluorene]-2yl]ethynyl]-6-(hydroxymethyl)tetrahydropyran-3,4,5-triol] | 0.27
OC[C@H]1O[C@H](C#Cc2ccc3c(c2)C(O)c2cc(C#C[C@H]4O[C@H](CO)[C@@H](O)[C@H](O)[C@@H]4O)ccc2-3)[C@@H](O)[C@@H](O)[C@@H]1O (stereo partly drawn) [Compound 195, (2R,3S,4R,5S,6R)-2-(hydroxymethyl)-6-[2-[9-hydroxy-7-[2-[(2R,3S,4R,5S,6R)-3,4,5-trihydroxy-6-(hydroxymethyl)tetrahydropyran-2-yl]ethynyl]-9H-fluoren-2-yl]ethynyl]tetrahydropyran-3,4,5-triol] | 18
OCC(O)CC1(O)c2cc(C#C[C@H]3O[C@H](CO)[C@@H](O)[C@H](O)[C@@H]3O)ccc2-c2ccc(C#C[C@H]3O[C@H](CO)[C@@H](O)[C@H](O)[C@@H]3O)cc21 (stereo partly drawn) [Compound 196, (2R,3S,4R,5S,6R)-2-[2-[9-(2,3-dihydroxypropyl)-9-hydroxy-7-[2-[(2R,3S,4R,5S,6R)-3,4,5-trihydroxy-6-(hydroxymethyl)tetrahydropyran-2-yl]ethynyl]fluoren-2-yl]ethynyl]-6-(hydroxymethyl)tetrahydropyran-3,4,5-triol] | 28
CN1CCN(C2c3cc(C#C[C@H]4O[C@H](CO)[C@@H](O)[C@H](O)[C@@H]4O)ccc3-c3ccc(C#C[C@H]4O[C@H](CO)[C@@H](O)[C@H](O)[C@@H]4O)cc32)CC1 [Compound 198, (2R,3S,4R,5S,6R)-2-(hydroxymethyl)-6-[2-[9-(4-methylpiperazin-1-yl)-7-[2-[(2R,3S,4R,5S,6R)-3,4,5-trihydroxy-6-(hydroxymethyl)tetrahydropyran-2-yl]ethynyl]-9H-fluoren-2-yl]ethynyl]tetrahydropyran-3,4,5-triol] | 24
OC[C@H]1O[C@H](C#Cc2ccc3c(c2)C2(CCCCO2)c2cc(C#C[C@H]4O[C@H](CO)[C@@H](O)[C@H](O)[C@@H]4O)ccc2-3)[C@@H](O)[C@@H](O)[C@@H]1O (stereo partly shown) [Compound 199] | 0.21
OC[C@H]1O[C@H](C#Cc2ccc3c(c2)C2(CCC(O)CC2)c2cc(C#C[C@H]4O[C@H](CO)[C@@H](O)[C@H](O)[C@@H]4O)ccc2-3)[C@@H](O)[C@@H](O)[C@@H]1O (stereo partly shown) [Compound 203] | 0.04
CC1(O)CCC2(CC1)c1cc(C#C[C@H]3O[C@H](CO)[C@@H](O)[C@H](O)[C@@H]3O)ccc1-c1ccc(C#C[C@H]3O[C@H](CO)[C@@H](O)[C@H](O)[C@@H]3O)cc12 [Compound 204] | 0.8
NC1CCC2(CC1)c1cc(C#C[C@H]3O[C@H](CO)[C@@H](O)[C@H](O)[C@@H]3O)ccc1-c1ccc(C#C[C@H]3O[C@H](CO)[C@@H](O)[C@H](O)[C@@H]3O)cc12 [Compound 205] | 0.39
CC(C)OC(=O)c1c(C#C[C@H]2O[C@H](CO)[C@@H](O)[C@H](O)[C@@H]2O)ccc2c1C1(CCNCC1)c1cc(C#C[C@H]3O[C@H](CO)[C@@H](O)[C@H](O)[C@@H]3O)ccc1-2 [Compound 208] | 0.03
CCOC(=O)c1c(C#C[C@H]2O[C@H](CO)[C@@H](O)[C@H](O)[C@@H]2O)ccc2c1C1(CCNCC1)c1cc(C#C[C@H]3O[C@H](CO)[C@@H](O)[C@H](O)[C@@H]3O)ccc1-2 [Compound 209, ethyl 2,7-bis[2-[(2R,3S,4R,5S,6R)-3,4,5-trihydroxy-6-(hydroxymethyl)tetrahydropyran-2-yl]ethynyl]spiro[fluorene-9,4 piperidine]-1 carboxylate] | 0.07
CC(=O)OCC1(COC(C)=O)c2cc(C#C[C@H]3O[C@H](CO)[C@@H](O)[C@H](O)[C@@H]3O)ccc2-c2ccc(C#C[C@H]3O[C@H](CO)[C@@H](O)[C@H](O)[C@@H]3O)cc21 [Compound 211, [9-(acetoxymethyl)-2,7-bis[2-[(2R,3S,4R,5S,6R)-3,4,5-trihydroxy-6-(hydroxymethyl)tetrahydropyran-2-yl]ethynyl]fluoren-9-yl]methyl acetate] | 2.2
OC[C@H]1O[C@H](C#Cc2cc(C#C[C@H]3O[C@H](CO)[C@@H](O)[C@H](O)[C@@H]3O)c3[nH]ncc3c2)[C@@H](O)[C@@H](O)[C@@H]1O [Compound 212, (2R,3S,4R,5S,6R)-2-(hydroxymethyl)-6-[2-[7-[2-[(2R,3S,4R,5S,6R)-3,4,5-trihydroxy-6-(hydroxymethyl)tetrahydropyran-2-yl]ethynyl]-1H-indazol-5-yl]ethynyl]tetrahydropyran-3,4,5-triol] | 4.9
CN(C)CCN(C)C1c2cc(C#C[C@H]3O[C@H](CO)[C@@H](O)[C@H](O)[C@@H]3O)ccc2-c2ccc(C#C[C@H]3O[C@H](CO)[C@@H](O)[C@H](O)[C@@H]3O)cc21 [Compound 213, (2R,3S,4R,5S,6R)-2-[2-[9-[2-(dimethylamino)ethyl-methyl-amino]-7-[2-[(2R,3S,4R,5S,6R)-3,4,5-trihydroxy-6-(hydroxymethyl)tetrahydropyran-2-yl]ethynyl]-9H-fluoren-2-yl]ethynyl]-6-(hydroxymethyl)tetrahydropyran-3,4,5-triol] | 3.7
OC[C@H]1O[C@H](C#Cc2ccc3c(c2)C(O)(CC2CCCC2)c2cc(C#C[C@H]4O[C@H](CO)[C@@H](O)[C@H](O)[C@@H]4O)ccc2-3)[C@@H](O)[C@@H](O)[C@@H]1O (stereo partly drawn) [Compound 214, (2R,3S,4R,5S,6R)-2-[2-[9-(cyclopentylmethyl)-9-hydroxy-7-[2-[(2R,3S,4R,5S,6R)-3,4,5-trihydroxy-6-(hydroxymethyl)tetrahydropyran-2-yl]ethynyl]fluoren-2-yl]ethynyl]-6-(hydroxymethyl)tetrahydropyran-3,4,5-triol] | 0.45
OC[C@H]1O[C@H](C#Cc2ccc3c(c2)C(O)(CC2CCCCC2)c2cc(C#C[C@H]4O[C@H](CO)[C@@H](O)[C@H](O)[C@@H]4O)ccc2-3)[C@@H](O)[C@@H](O)[C@@H]1O (stereo partly drawn) [Compound 215, (2R,3S,4R,5S,6R)-2-[2-[9-(cyclohexylmethyl)-9-hydroxy-7-[2-[(2R,3S,4R,5S,6R)-3,4,5-trihydroxy-6-(hydroxymethyl)tetrahydropyran-2-yl]ethynyl]fluoren-2-yl]ethynyl]-6-(hydroxymethyl)tetrahydropyran-3,4,5-triol] | 5
OCCC1(O)c2cc(C#C[C@H]3O[C@H](CO)[C@@H](O)[C@H](O)[C@@H]3O)ccc2-c2ccc(C#C[C@H]3O[C@H](CO)[C@@H](O)[C@H](O)[C@@H]3O)cc21 [Compound 216, (2R,3S,4R,5S,6R)-2-[2-[9-hydroxy-9-(2-hydroxyethyl)-7-[2-[(2R,3S,4R,5S,6R)-3,4,5-trihydroxy-6-(hydroxymethyl)tetrahydropyran-2-yl]ethynyl]fluoren-2-yl]ethynyl]-6-(hydroxymethyl)tetrahydropyran-3,4,5-triol] | 9.9
